Here are results for 14 molecules from publication PMC7356998, “Intrinsic Dissolution Rate Profiling of Poorly Water-Soluble Compounds in Biorelevant Dissolution Media” (Pharmaceutics, 2020).

Converted amounts (≈) assume the structure as drawn. Read-outs that look alike come from different tables or passages of the source. Marks after values point to notes of the source that are not given here.

The nature of data set [1]: Intrinsic dissolution rate from controlled suspensions (SIDR), μDiss Profiler. The class given is physicochemical. Particulars: for IDRFaSSIF-V1 / IDRFaSSIF-V2 / IDRFeSSIF-V2: suspension (S), 100 rpm, mean ± SD; for IDRFaSSIF-V1: FaSSIF-V1 pH 6.5, 37 °C; for IDR in fed-state medium (FeSSIF-V1) compared to fasted-state (FaSSIF-V1): suspension assays; for IDRFaSSIF-V2: FaSSIF-V2 pH 6.5, 37 °C; for IDRFeSSIF-V2: FeSSIF-V2 pH 5.8, 37 °C. How it is done: Controlled suspensions of the APIs were prepared by tip ultrasonication in suspension media. For compatibility reasons, the suspension medium composition was 2% PVP K30 and 0.2% SDS in MilliQ water for acidic and neutral compounds or 1% HPMC and 0.2% SDS in MilliQ water for basic compounds. Suspension media were stirred for at least an hour until a clear solution was obtained. All suspensions were prepared at a concentration of 4 mg API/mL suspension medium by weighing 16 mg of the compound into a glass vial and adding 4 mL of the corresponding suspension medium. The suspension was then briefly vortexed prior to 5 min of tip ultrasonication using a Vibra-Cell sonicator mounted with a 13 mm (Ø) probe tip (Sonics, Newtown, CT, USA). The following settings were used: 20% amplitude, pulse 10 s on and 5 s off. The vial containing the suspension was placed in a beaker with ice during ultrasonication to avoid heating. Felodipine and griseofulvin were treated slightly differently to avoid forming a large fraction of submicron-sized particles. The felodipine suspension was only ultrasonicated for 1 min, and the griseofulvin suspension was used immediately after vortexing and without ultrasonication. All prepared suspensions were kept in an oven at 37 °C prior to use in the dissolution experiments. Dissolution experiments were performed within three hours of sample preparation.
The freshly prepared suspension was diluted (100 µL in 1 mL MilliQ water) and immediately used for determination of hydrodynamic particle size by dynamic light scattering (DLS; Litesizer 500, Anton Paar GmbH, Graz, Austria) at 25 °C. Peak values from the intensity-based particle size distribution were used for calculating total particle surface area in the suspension following the approach of Andersson et al.. In case of bimodal particle size distributions, an intensity peak weighted average particle size was calculated. The following assumptions were made for the surface area calculations: (i) spherical particles, (ii) constant particle size, and (iii) constant number of particles during the initial phase of the dissolution experiment (i.e., under sink conditions or <0.3 × Sapp). Using these assumptions, the volume of each particle (Vparticle) is:(1) Vparticle=4πr^3/3, where r is the mean radius of the suspended particles. The particle surface area (SAparticle) is:(2) SAparticle=4πr^2, and the volume of compound (Vmaterial) added to the dissolution medium is:(3) Vmaterial=m/ρ, where m is the total mass of compound added and ρ is the density of the compound. The total number of particles (n) in the suspension can thus be calculated from:(4) nparticles=Vmaterial/Vparticle
Finally, the total surface area (A, cm^2) of all particles present in the suspension added to the dissolution medium is calculated through:(5) A=nparticlesSAparticle
Dissolution experiments were carried out in a small-scale dissolution apparatus using in situ fiber optic probes to measure the amount of drug dissolved over time by UV absorbance (μDiss Profiler, Pion Inc., Billerica, MA, USA). Drug dissolution was carried out from suspensions (S) or discs (D) depending on the solubility of the compound in the biorelevant media studied (Table 3). […].
Standard curves were established by adding aliquots of DMSO stock solutions of the compounds to 3 mL of biorelevant medium, respectively. Dissolution media were prepared following the protocol provided by Biorelevant.com Ltd. and used within 48 h after their preparation. The media were incubated at 37 °C for at least one hour prior to use in the dissolution experiments. The hydrodynamic diameter of the micelles/vesicles formed in the biorelevant media were measured by DLS (Table 2). […] The biorelevant dissolution medium was maintained at 37 °C in the μDiss Profiler and stirred at 800 rpm during addition of the DMSO stock aliquots. […]

The conditions of data set [2]: apparent solubility, cited from earlier work; for SFaSSIF-V1: FaSSIF-V1 pH 6.5; for SFeSSIF-V1: FeSSIF-V1 pH 5.
Data set [3] in a line: Apparent solubility estimated from dissolution experiments in the μDiss Profiler. The format is physicochemical. The following applies: for solubility thermodynamic: thermodynamic from solid. The protocol:
If literature values were not available, Sapp values were estimated from the dissolution experiments either from the steady state concentration reached during dissolution making use of an excess amount material, or by nonlinear regression analysis of the dissolution data in GraphPad Prism 7.04 (GraphPad Software Inc., San Diego, CA, USA). […] In these experiments, an excess amount of drug was added to triplicate Eppendorf tubes containing 1 mL of the respective dissolution medium. The tubes were vortexed and placed in a 37 °C incubator. Samples for HPLC analysis were taken 24, 48, and 72 h (triplicates at each time point) after initiation of the experiment to ensure that equilibrium had been reached. The samples were centrifuged at 37 °C, 23,000 g for 10 min (Heraeus Megafuge 8R, Thermo Scientific, Waltham, MA, USA). The supernatant was sampled, diluted 1:1 with acetonitrile, and kept refrigerated until HPLC analysis. The concentrations of the dissolved drugs were determined using a HPLC (Agilent Technologies 1290 Infinity, Santa Clara, CA, USA) with a Zorbax Eclipse XDB-C18 column (4.6 × 100 mm; Agilent Technologies, Santa Clara, CA, USA) kept at 40 °C. The injection volumes were 20 μL. A mobile phase 0.1% formic acid in acetonitrile: 0.1% formic acid in water 60:40 (v/v) and an isocratic flow rate at 1 mL/min were used for both naproxen and ethinylestradiol. UV absorbances were monitored at a wavelength of 232 nm for naproxen and 315 nm for ethinylestradiol. The retention time was 1.76 min for naproxen and 1.85 min for ethinylestradiol. Dissolution experiments were carried out in a small-scale dissolution apparatus using in situ fiber optic probes to measure the amount of drug dissolved over time by UV absorbance (μDiss Profiler, Pion Inc., Billerica, MA, USA). Drug dissolution was carried out from suspensions (S) or discs (D) depending on the solubility of the compound in the biorelevant media studied (Table 3). […] Glass vials (six in parallel), each containing 15 mL of biorelevant dissolution medium and a crossbar stirrer, were used for the dissolution experiments. The stirring rate was set to 100 rpm. Freshly prepared API suspensions were briefly vortexed to re-disperse any sediments and 500 μL of suspension was added to each vial to initiate the experiment. […] Experiments were run for at least 20 min with data collected every 1 s for the first 8 min and then once per minute for the remaining time. All dissolution experiments from suspensions were carried out in triplicate.

Where [4] appears, read: FaSSIF-V1, 37 °C, pH 6.5, fassif, FaSSIF-V1 pH 6.5, determined from dissolution experiments in the μDiss Profiler, read-out: SFaSSIF-V1.
[5] abbreviates: FeSSIF-V1, 37 °C, pH 5, fessif, FeSSIF-V1 pH 5, determined from dissolution experiments in the μDiss Profiler, read-out: SFeSSIF-V1.

With `CC(=O)[C@H]1CC[C@H]2[C@@H]3CCC4=CC(=O)CC[C@]4(C)[C@H]3CC[C@]12C` [Progesterone], in data set [1], the IDRFaSSIF-V1 was determined as 16.8 ± 0.5 μg/min/cm^2. Moreover, in data set [2], the SFaSSIF-V1 is 25.5 ± 1.1 [50] μg/mL and the SFeSSIF-V1 was 78.6 ± 16.2 [41] μg/mL.
Regarding `COC1=CC(=O)C[C@@H](C)[C@]12Oc1c(Cl)c(OC)cc(OC)c1C2=O` [Griseofulvin], in data set [1], the IDRFaSSIF-V1 was 3.7 ± 0.6 μg/min/cm^2 and the “IDR in fed-state medium (FeSSIF-V1) compared to fasted-state (FaSSIF-V1)” value (“IDR … compared to fasted-state (FaSSIF-V1)” below) is “lower”. Besides, in data set [2], the SFaSSIF-V1 is 23.4 ± 1.8 [41] μg/mL and the SFeSSIF-V1 is 29.2 ± 3.4 [41] μg/mL.
`CCOC(=O)C1=C(C)NC(C)=C(C(=O)OC)C1c1cccc(Cl)c1Cl` (stereo not shown) [Felodipine]: in data set [1], the IDRFaSSIF-V1 is listed as 0.8 ± 0.4 μg/min/cm^2, the IDRFaSSIF-V2 was found to be 0.6 ± 0.2 μg/min/cm^2 and the IDRFeSSIF-V2 amounted to 1.5 ± 0.2 μg/min/cm^2. For the same molecule, in data set [2], the SFaSSIF-V1 was 31.8 ± 1.7 [7] μg/mL and the SFeSSIF-V1 is 44.9 ± 9.2 [48] μg/mL.
In data set [1], `OCCN(CCO)c1nc(N2CCCCC2)c2nc(N(CCO)CCO)nc(N3CCCCC3)c2n1` [Dipyridamole] registered an IDRFaSSIF-V1 of 0.5 ± 0.05 μg/min/cm^2, an IDRFaSSIF-V2 of 0.5 ± 0.03 μg/min/cm^2 and an IDRFeSSIF-V2 of 1.7 ± 0.3 μg/min/cm^2. In data set [2], the SFaSSIF-V1 was 11.1 ± 3.0 [48] μg/mL and the SFeSSIF-V1 was 148.9 ± 19.7 [48] μg/mL. Further, in data set [2] (listed as dipyridamole), the SFaSSIF-V1 was 11 to 13 µg/mL.
Turning to `Cc1cccc(Nc2ccccc2C(=O)O)c1C` [Mefenamic acid], in data set [3] (setting [4]), the solubility thermodynamic is 36.6 ± 0.6 µg/mL (≈ 152 µM). The solubility thermodynamic in data set [3] (setting [5]) was 33.2 ± 0.7 µg/mL (≈ 138 µM). In data set [1], this molecule came in with an IDRFaSSIF-V1 of 13.9 ± 2.0 μg/min/cm^2, an IDRFaSSIF-V2 of 11.9 ± 1.0 μg/min/cm^2 and an IDRFeSSIF-V2 of 7.9 ± 2.1 μg/min/cm^2.
Regarding `Cc1c(Cl)cccc1Nc1ccccc1C(=O)O` [Tolfenamic acid], in data set [1], the IDRFaSSIF-V1 is given as 4.1 ± 0.8 μg/min/cm^2, the IDRFaSSIF-V2 came to 12.9 ± 0.9 μg/min/cm^2 and the IDRFeSSIF-V2 is given as 4.8 ± 0.6 μg/min/cm^2. Moreover, in data set [2], the SFaSSIF-V1 is 63.0 ± 2.7 [15] μg/mL and the SFeSSIF-V1 was 41.0 ± 0.5 [15] μg/mL.
In data set [1], `COc1ccc(CCN2CCC(Nc3nc4ccccc4n3Cc3ccc(F)cc3)CC2)cc1` [Astemizole] returned an IDRFaSSIF-V1 of 8.6 ± 0.4 μg/min/cm^2 and an IDRFaSSIF-V2 of 2.0 ± 0.2 μg/min/cm^2. In data set [2], the SFaSSIF-V1 is 97.9 ± 2.1 [15] μg/mL and the SFeSSIF-V1 is 182 ± 1 [15] μg/mL. For the same molecule, the SFaSSIF-V1 in data set [2] (listed as astemizole) is on record as ~ 100 μg/mL.
Consider `COc1ccc2c(c1OC)C(=O)O[C@@H]2[C@H]1c2c(cc3c(c2OC)OCO3)CCN1C` [Noscapine], for which the SFaSSIF-V1 in data set [3] (FaSSIF-V1 pH 6.5, extrapolation of μDiss dissolution data by nonlinear regression (GraphPad Prism)) is reported as 13.4 ‡ μg/mL. Further, the SFaSSIF-V1 in data set [3] (FaSSIF-V1 pH 6.5, extrapolation of μDiss dissolution data by nonlinear regression (GraphPad Prism), listed as noscapine) is 11 to 13 µg/mL. Moreover, in data set [1], the IDRFaSSIF-V1 came out at 1.1 ± 0.2 μg/min/cm^2, the IDRFaSSIF-V2 is 1.2 ± 0.1 μg/min/cm^2 and the IDRFeSSIF-V2 is 5.2 ± 0.8 μg/min/cm^2.
For the molecule `CC(C)(Oc1ccc(CCNC(=O)c2ccc(Cl)cc2)cc1)C(=O)O` [Bezafibrate], in data set [3] (setting [4]), the solubility thermodynamic was about 100 µg/mL (≈ 276 µM). In addition, the SFaSSIF-V1 in data set [3] (FaSSIF-V1 pH 6.5, determined from dissolution experiments in the μDiss Profiler) is 91.0 ± 8.9 µg/mL. Besides, the SFeSSIF-V1 in data set [3] (FeSSIF-V1 pH 5, extrapolation of μDiss dissolution data by nonlinear regression (GraphPad Prism)) was 105.7 ‡ μg/mL. Further, the IDRFaSSIF-V1 in data set [1] worked out at 32.7 ± 3.9 μg/min/cm^2.
The molecule `C(=C\c1ccccc1)/CN1CCN(C(c2ccccc2)c2ccccc2)CC1` [Cinnarizine] showed an IDRFaSSIF-V1 in data set [1] of 0.3 ± 0.01 μg/min/cm^2.
With `CN1CC(=O)N2[C@H](c3ccc4c(c3)OCO4)c3[nH]c4ccccc4c3C[C@@H]2C1=O` [Tadalafil], in data set [3] (setting [5]), the solubility thermodynamic is 21 ± 0.5 µg/mL (≈ 53.9 µM). In addition, in data set [1], the IDRFaSSIF-V1 turned out to be 3.4 ± 0.7 μg/min/cm^2, the IDRFaSSIF-V2 worked out at 1.3 ± 0.8 μg/min/cm^2 and the “IDR … compared to fasted-state (FaSSIF-V1)” value was “double”. For the same molecule, the SFaSSIF-V1 in data set [2] is 5.9 ± 0.7 [7] μg/mL.
As for `C#C[C@]1(O)CC[C@H]2[C@@H]3CCC4=Cc5oncc5C[C@]4(C)[C@H]3CC[C@@]21C` [Danazol], in data set [1], the IDRFaSSIF-V1 is listed as 0.14 ± 0.02 μg/min/cm^2 and the “IDR … compared to fasted-state (FaSSIF-V1)” value amounted to 28 fold.
For the molecule `CC(C)OC(=O)C(C)(C)Oc1ccc(C(=O)c2ccc(Cl)cc2)cc1` [Fenofibrate], in data set [1], the IDRFaSSIF-V1 is 0.04 ± 0.002 μg/min/cm^2, the IDRFaSSIF-V2 came out at 0.05 ± 0.001 μg/min/cm^2 and the IDRFeSSIF-V2 is 2.7 ± 0.3 μg/min/cm^2.
Take `COc1ccccc1OCCNCC(O)COc1cccc2[nH]c3ccccc3c12` (stereo not shown) [Carvedilol]: in data set [1], the IDRFaSSIF-V1 came out at 2.9 ± 0.5 μg/min/cm^2, the IDRFaSSIF-V2 was determined as 1.5 ± 0.2 μg/min/cm^2 and the IDRFeSSIF-V2 is reported as 13.6 ± 0.6 μg/min/cm^2. In data set [2], the SFaSSIF-V1 is 55.9 ± 1.0 [15] μg/mL and the SFeSSIF-V1 is 305 ± 2 [15] μg/mL.
